Source: patent US5422352A, “Slimming pharmaceutical composition” (Nycomed Dak A/S, priority 1989, dated 1995)
Structures can show the parent of a compound that is named as a salt.

Legend:
[1] = thermogenic effect: energy expenditure in healthy volunteers by indirect calorimetry (Example 2); assay type: in vivo, human; settings: for Mean energy expenditure during 3 hours: oral single dose, not placebo-corrected; for Energy expenditure greater than placebo: mean±SE, minimum figure; for thermogenic effect (in words): human, in vivo
Description: The study was conducted in two parts. The first part was designed as a placebo-controlled, double-blind trial on the effect of 3 different doses of caffeine, 3 different doses of ephedrine and 2 placebo samples. The order of the tests were not entirely randomized, but organized in a sequence that allowed testing for a carry-over effect.
6 healthy volunteers of normal weight (3 of each sex) aged between 20 and 32 were included after informed consent was obtained. The average age of the 6 volunteers was 25 (±1) years, height, 179 (±11) cm; body weight, 70 (±13) kg; percentage of overweight, -1.7 (±8.3) % and body fat, 13 (±3) kg. The numbers in parenthesis are the standard deviation. The percentages of overweight was calculated from the individual body weight (IBW) using the midpoint of the medium frame (MMF) given in the Metropolitan Life Insurance Company tables of desirable weights (1): [formula]
A. Treatment with ephedrine comprising capsules with 10 mg, 20 mg or 40 mg of ephedrine hydrochloride, respectively.
B. Treatment with caffeine comprising capsules with 100 mg, 200 mg or 400 mg of caffeine, respectively. […]
The capsules were administered orally as single doses and swallowed with 300 ml of tap water (20° C.).
All blood samples for determination of substrate, metabolite and hormone concentrations were collected form the antecubital vein. Blood samples were taken at -30, 0, 30, 60, 90, 120, 150 and 180 minutes relative to the capsule intake (time 0). The subjects breathed through a low-resistance Scuba one-way mouthpiece. After about 10 minutes of adaptation, expiratory gas was collected in Douglas bags for 10 minute periods. Gas collection was made after each blood sampling.
Energy expenditure was measured by indirect calorimetry. Expiratory gas was continuously analyzed for the content of oxygen and carbon dioxide with a Godart Rapox Oxygenmeter and a Beckman LB-1 Medical Gas Analyzer. Respiratory steady state was assumed to be present, when the end-expiratory carbon dioxide fraction was constant. Expiratory gas was collected in Douglas bags and analyzed for the content of oxygen and carbon dioxide with Radiometer gas-electrodes connected to an acid-base analyzer (PHM 71, Copenhagen, Denmark), and the volume of expiration gas was measured with a gas meter. […] The standard gasses were analyzed with a Scholander microtechnique with a measuring error on gas fraction being <0.0005%, i.e. the error on measurement of expired gas being within ±0.1-0.2% (19). […] A fixed protein catabolism was assumed, since the error on calculating the energy expenditure by omitting the exact correction from urinary nitrogen was negligible (20). The energy expenditure was calculated taking de novo lipogenesis into account (21).
The responses to a test substance were estimated separately for each subject as the difference between the integrated numerical area of the response curve (by a trapezoidal approach) and the rectangular area determined by the basal values. To estimate the predictive, theoretical effect of combinations of ephedrine and caffeine, the single dose responses were added after subtracting the average placebo response. This calculation was performed separately for each subject before statistical analysis. A two-way analysis of variance for randomized blocks was performed (28) to test differences between experimental periods within the same experiment and to test differences between the responses to different stimuli (test substances). Post-hoc testing was applied to compare two means (28).

[2] = safety evaluation in healthy volunteers: side effects, blood pressure, heart rate (Example 2); assay type: in vivo, human
Description: Arterial blood pressure was measured in the right arm by a sphygmomanometer a.m. Riva-Rocci, and heart rate was determined by palpation of the peripheral heart rate in the ipsilateral radial artery. These measurements were performed after each sampling of blood.
A "Trimline" apparatus manufactured by PyMaH (Copenhagen) was used to measure the arterial blood pressure. A cuff 12-14 cm in width was employed. […] The diastolic blood pressure was determined as the manometer pressure when the Korotkoff sound quality changes from tapping to muffled.
At the end of each study comprising oral administration of the actual test substance, subjective feelings of side-effects were assessed by questioning the experimental subjects.

[3] = laboratory methods in healthy volunteers: serum glucose, NEFA, glycerol (Example 2); assay type: in vivo, human; settings: oral; for serum glucose (in words): vs placebo
Description: Through the indwelling antecubital cannula, blood was sampled without stasis in iced syringes. The blood samples were then centrifuged at 4° C. and nonesterified fatty acids (NEFA) were immediately extracted from the blood samples and later determined as described in (22). The concentration of glucose in plasma was determined using the glucose oxidase method (23), the concentration of glycerol in plasma was determined as described by Laurell and Tibbling (24), the concentration of lactate in plasma was described using the method described by Noll (25), and the concentration of triglyceride in plasma was determined as described by Giegel (26). Blood samples for the determination of methylxanthine metabolites was collected in tubes containing reduced glutathione and ethylene glycol-bis(β-aminoethyl)-N,N,N',N'-tetraacetic acid (EGTA). Samples were immediately centrifuged and the plasma was stored at -40° C. until the determination of methylxanthines was performed (see Example 4). Immunoreactive insulin, pancreatic glucagon and C-peptide concentrations were measured in the plasma samples using radioimmunoassay kits purchased from Novo, Copenhagen. All plasma aliquots for determination of pancreatic hormones and methylxanthine metabolites were coded and analyzed in a random order to avoid any systematic error due to the order of analysis. The concentrations of sodium and potassium in the plasma samples were determined by flame spectrophotometry.

[4] = weight reducing effect in obese patients, 24 weeks, double blind (Example 5); assay type: in vivo, human
Description: The study was designed as a double blind, randomised, parallel study with 4 treatment groups in a 2×2 factorial design.
All patients were treated with the trial medication and prescribed a 4.2 MJ/day diet for 24 weeks.
B. Ephedrine group: Ephedrine tablets containing 20 mg ephedrine hydrochloride.
C. Caffeine group: Caffeine tablets containing 200 mg caffeine.
The patients were prescribed 1 tablet 3 times daily one hour before meals together with a 4.2 MJ/day diet consisting of NUPO® protein nutrition powder (33) (1.6 MJ/day) and free additional choice of food (2.6 MJ/day) for 24 weeks.
The patients were weighed on a decimal scale by dietitians at each visit. A Seca electronic scale (model 707) was used. The weighing limit was 200 kg, with 100 g graduations. The scale was calibrated every week.
The statistical analysis of weight loss was based on the logarithm of the initial body weight minus logarithm of the body weight at the actual visit.
As the data was logarithmically transformed as expressed above, a negative value corresponds to a supra-additive effect. Nil corresponds to additive effect and a positive value corresponds to a sub-additive effect.

[5] = adverse drug reactions in obese patients, 24 weeks (Example 5); assay type: in vivo, human; settings: for Patients complaining of adverse drug reactions / Patients withdrawn due to adverse drug reactions: 24 weeks; for adverse reactions / withdrawal symptoms (in words): human, in vivo
From the text: 14 days after discontinuation of the treatment, a psychiatrist recorded any inconveniences the patient might have had during this period and physical and psychological symptoms were registered.

[6] = blood pressure and heart rate in obese patients, 24 weeks (Example 5); assay type: in vivo, human; settings: week 24; for Average heart rate decrease / Average heart rate decrease, % of initial value: negative = increase
Description: Blood pressure was measured with a Trimline Sphygmomanometer (PyMaH) by the investigator every 4 weeks. After at least 10 minutes rest, the measurements were carried out in the right arm of the patient a.m. Riva-Rocci with the patient being positioned in a sitting position. A cuff of 14 to 16 cm width was employed. […] The diastolic blood pressure was determined at the manometer pressure when the Korotkoff sound quality changes from tapping to muffled.
The heart rate was determined by palpation of the peripheral heart rate in the right radial artery.
(§1) The mean difference of blood pressure, heart rate and laboratory data from the initial values (week 0) at week 12 and at week 24 was compared to initial values for each treatment group by Students' one sample t-test (SAS). Comparison of the treatment groups at a particular visit was done by one-way analysis of variance (SAS.GLM). The difference from initial values was used in order to prevent chance events influencing the results. Patients with high values, for instance, who dropped out would thus influence the mean value at the next control, without a real difference being present.

[7] = laboratory methods: fasting serum glucose, triglycerides, cholesterol in obese patients (Example 5); assay type: in vivo, human
Description: Blood and urine samples for laboratory tests were taken before entry, and after 12 and 24 weeks.
Metabolic factors: In order to evaluate changes in the glucose and lipid metabolism of the patients during the study, triglyceride acid (TGA), cholesterol and fasting glucose were analyzed.
All clinical-chemical analyses apart from TGA and test strips for urine, were carried out at Department of Clinical Chemistry, Hvidovre Hospital, in accordance with their routine methods and assays, including the department's running quality control. The methods and the assays are routine procedures and are well-documented (7,40-48). TGA was analyzed and test strips for urine assessed at the Department of Internal Medicine, Division of Endocrinology, Hvidovre Hospital's own laboratory following the same routine procedures as above (26).
as §1

[8] = ephedrine 50 mg; ephedrine plus caffeine 50 mg+100 mg; oral, 4 months; cited from earlier work
[9] = 18 weeks, 2+2+1 tablet per day; cited from earlier work
resting skeletal muscle = settings: in vivo; cited from earlier work
[10] = 3 ppm (3 mg/kg feed); cited from earlier work
[11] = week 12, difference from initial
[12] = week 24, difference from initial

Compound | thermogenic effect (in words) [1] | serum nonesterified fatty acids and glycerol (in words) [3] | serum glucose (in words) [3] | Patients complaining of adverse drug reactions [5] | Patients withdrawn due to adverse drug reactions [5] | adverse reactions / withdrawal symptoms (in words) [5] | Average diastolic blood pressure decrease [6] | Average diastolic blood pressure decrease, % of initial value [6] | Average systolic blood pressure decrease [6] | Average systolic blood pressure decrease, % of initial value [6] | Average heart rate decrease [6] | Average heart rate decrease, % of initial value [6] | Mean difference in fasting serum glucose [7, 11] | Mean difference in serum triglycerides [7, 11] | Mean difference in fasting serum cholesterol [7, 12] | Mean difference in fasting serum glucose [7, 12] | Mean difference in serum triglycerides [7, 12] | further results
Cn1c(=O)c2c(ncn2C)n(C)c1=O [Caffeine, caffeine] | a significant relation between caffeine dose and thermogenic response (energy expenditure) | increased the concentrations of NEFA and glycerol in the serum | hyperglycemic effect | 16 patients | 2 | Headache was reported by 27 patients, especially patients from the caffeine group | 8.9 mmHg | 11.0% | 9.3 mmHg | 7.3% | 5.7 BPM | 7.3% | -0.18 mmol/L | -0.11 mmol/L | -0.28 mmol/L | -0.42 mmol/L | -0.32 mmol/L | Energy expenditure/(placebo value) ([1]; 100 mg caffeine): 2.5; Mean energy expenditure during 3 hours ([1]; 100 mg caffeine): 15.4 kcal/3 h; Energy expenditure greater than placebo ([1]; 100 mg caffeine): 9.2±5.7 kcal/3 h; Energy expenditure/(placebo value) ([1]; 200 mg caffeine): 2.2; Mean energy expenditure during 3 hours ([1]; 200 mg caffeine): 13.4 kcal/3 h; Energy expenditure greater than placebo ([1]; 200 mg caffeine): 7.2±6.0 kcal/3 h; Energy expenditure/(placebo value) ([1]; 400 mg caffeine): 6.2; Mean energy expenditure during 3 hours ([1]; 400 mg caffeine): 38.6 kcal/3 h; Energy expenditure greater than placebo ([1]; 400 mg caffeine): 32.4±8.2 kcal/3 h; thermogenic effect (in words) ([1]; listed as caffeine): possess thermogenic activity; side effects (in words) ([2]; 400 mg caffeine): The incidence of side effects after administration of the active compounds and placebo, respectively, was not significant, except for caffeine 400 mg (p<0.01); Average weight loss of the whole group ([4]; 24 weeks): 11.7 kg; Weight loss of one strongly deviant patient ([4]; 24 weeks, excluded from analysis): 42.6 kg; Relative body weight ([4]; week 4, 1 tablet 3 times daily, 4.2 MJ/day diet): 95.5%; Relative body weight ([4]; week 8): 93.0%; Relative body weight ([4]; week 12): 90.4%; Relative body weight ([4]; week 16): 89.3%; Relative body weight ([4]; week 20): 88.0%; Relative body weight ([4]; week 24): 87.6%
CN[C@@H](C)[C@H](O)c1ccccc1 [Ephedrine, ephedrine hydrochloride] | possess thermogenic activity | increased the concentrations of NEFA and glycerol in the serum | hyperglycemic effect | 20 patients | 1 | 34 patient complained of hunger, especially those who had been treated with ephedrine | 6.9 mmHg | 8.6% | 8.7 mmHg | 7.0% | -3.1 BPM | -4.3% | -0.55 mmol/L | -0.14 mmol/L | -0.18 mmol/L | -0.46 mmol/L | -0.66 mmol/L | Energy expenditure/(placebo value) ([1]; 10 mg ephedrine hydrochloride): 3.5; Mean energy expenditure during 3 hours ([1]; 10 mg ephedrine hydrochloride): 22.2 kcal/3 h; Energy expenditure greater than placebo ([1]; 10 mg ephedrine hydrochloride): 16.0±10.9 kcal/3 h; Energy expenditure/(placebo value) ([1]; 20 mg ephedrine hydrochloride): 2.0; Mean energy expenditure during 3 hours ([1]; 20 mg ephedrine hydrochloride): 12.5 kcal/3 h; Energy expenditure greater than placebo ([1]; 20 mg ephedrine hydrochloride): 6.3±5.3 kcal/3 h; Energy expenditure/(placebo value) ([1]; 40 mg ephedrine hydrochloride): 3.0; Mean energy expenditure during 3 hours ([1]; 40 mg ephedrine hydrochloride): 18.3 kcal/3 h; Energy expenditure greater than placebo ([1]; 40 mg ephedrine hydrochloride): 12.1±4.9 kcal/3 h; systolic blood pressure and heart rate (in words) ([2]; 40 mg ephedrine hydrochloride): excessive increase in systolic blood pressure and heart rate; weight loss (in words) [8]: no significant difference in weight loss; average weight loss [9]: 7.9 kg; contribution of resting skeletal muscle to whole body thermogenesis induced (resting skeletal muscle): at least 50%
CC(C)(C)NCC(O)c1ccc(O)c(CO)c1 (stereo not shown) [salbutamol] |  |  |  |  |  |  |  |  |  |  |  |  |  |  |  |  |  | fat and protein accretion (in words) [10]: decreases fat accretion and increases protein accretion in growing pigs
